Measured values reported in ChEMBL document CHEMBL1137489, “Inhibition of choline transport by redox-active cholinomimetic bis-catechol reagents” (Bioorg Med Chem, 2007).
Active and inactive are the calls of the source. The rule behind the calls is not given here.

What was measured:
[1] = Inhibition of C57BL/6 mouse synaptosomal choline transporter; design: species or system C57BL6
Mus musculus = organism: Mus musculus; test: Inhibition of C57BL/6 mouse nicotinic acetyl choline receptor; details: C57BL6

| SMILES | IC50 [1] [µM] | Ki [1] [µM] | Activity (Mus musculus) |
| --- | --- | --- | --- |
| C[N+](C)(C)CCCCCC[N+](C)(C)C [HEXAMETHONIUM CHLORIDE] | 130 |  |  |
| C[N+](C)(CCCCCCCCCC[N+](C)(C)Cc1cccc(O)c1O)Cc1cccc(O)c1O | 21 | 31 | Active |
| C[N+](C)(CCCCCC[N+](C)(C)Cc1cccc(O)c1O)Cc1cccc(O)c1O | 76 | 73 | Active |
| C[N+](C)(C)CCCCCCCCCC[N+](C)(C)C [DECAMETHONIUM] | 1.5 |  |  |
